Read-outs that look alike come from different tables or passages of the source.
Experiments:
Assay in all cases: TGFα-shedding assay-based GPCR screening with chimeric Gα subunit proteins
Type in all cases: cell-based
348 GPCRs [1] = target: T1, 348 GPCRs (Homo sapiens, UniProt P08173)
T1 construct: expressed in transfected cells; host or cells: HEK293A
T1 sequence (P08173 1-479): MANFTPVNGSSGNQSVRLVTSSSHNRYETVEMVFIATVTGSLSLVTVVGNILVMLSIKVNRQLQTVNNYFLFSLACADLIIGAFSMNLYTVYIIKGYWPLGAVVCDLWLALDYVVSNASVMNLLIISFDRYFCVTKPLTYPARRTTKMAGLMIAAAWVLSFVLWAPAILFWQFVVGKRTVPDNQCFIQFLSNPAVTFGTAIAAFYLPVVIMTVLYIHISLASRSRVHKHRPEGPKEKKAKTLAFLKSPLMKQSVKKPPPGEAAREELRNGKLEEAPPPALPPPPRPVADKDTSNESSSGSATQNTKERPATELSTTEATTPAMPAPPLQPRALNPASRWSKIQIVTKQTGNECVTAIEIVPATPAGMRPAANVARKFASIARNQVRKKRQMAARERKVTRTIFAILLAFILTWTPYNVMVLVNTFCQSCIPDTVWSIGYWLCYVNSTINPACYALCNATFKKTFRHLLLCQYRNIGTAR

348 GPCRs [2] = target: T2, 348 GPCRs (Homo sapiens, UniProt P30559)
T2 construct: expressed in transfected cells; host or cells: HEK293A
T2 sequence (P30559 1-389): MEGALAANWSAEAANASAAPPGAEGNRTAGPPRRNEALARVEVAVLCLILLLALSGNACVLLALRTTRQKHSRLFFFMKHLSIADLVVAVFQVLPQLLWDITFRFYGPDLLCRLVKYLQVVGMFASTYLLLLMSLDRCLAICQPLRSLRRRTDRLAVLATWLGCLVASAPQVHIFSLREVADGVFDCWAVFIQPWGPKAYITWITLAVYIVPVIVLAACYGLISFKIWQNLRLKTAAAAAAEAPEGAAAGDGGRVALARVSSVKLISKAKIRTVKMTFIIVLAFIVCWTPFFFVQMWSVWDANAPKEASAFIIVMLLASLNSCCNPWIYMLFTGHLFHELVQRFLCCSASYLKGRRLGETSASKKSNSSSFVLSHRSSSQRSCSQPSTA

348 GPCRs [3] = target: T3, 348 GPCRs (Homo sapiens, UniProt Q9BXA5); conditions: 10µM, Favipiravir 100μM
T3 construct: expressed in transfected cells; host or cells: HEK293A
T3 sequence (Q9BXA5 1-334): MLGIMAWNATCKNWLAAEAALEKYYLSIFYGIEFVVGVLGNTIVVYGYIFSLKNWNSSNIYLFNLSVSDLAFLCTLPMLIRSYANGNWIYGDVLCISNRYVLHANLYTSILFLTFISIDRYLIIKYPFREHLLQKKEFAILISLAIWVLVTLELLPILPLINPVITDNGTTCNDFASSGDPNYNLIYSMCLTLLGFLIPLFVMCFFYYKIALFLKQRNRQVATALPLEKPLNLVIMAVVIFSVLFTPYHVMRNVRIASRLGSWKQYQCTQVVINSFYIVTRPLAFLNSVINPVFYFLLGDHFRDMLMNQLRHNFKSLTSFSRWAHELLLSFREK

348 GPCRs [4] = target: T4, 348 GPCRs (Homo sapiens, UniProt Q96LB1); conditions: 10µM, Favipiravir 100μM
T4 construct: expressed in transfected cells; host or cells: HEK293A
T4 sequence (Q96LB1 1-330): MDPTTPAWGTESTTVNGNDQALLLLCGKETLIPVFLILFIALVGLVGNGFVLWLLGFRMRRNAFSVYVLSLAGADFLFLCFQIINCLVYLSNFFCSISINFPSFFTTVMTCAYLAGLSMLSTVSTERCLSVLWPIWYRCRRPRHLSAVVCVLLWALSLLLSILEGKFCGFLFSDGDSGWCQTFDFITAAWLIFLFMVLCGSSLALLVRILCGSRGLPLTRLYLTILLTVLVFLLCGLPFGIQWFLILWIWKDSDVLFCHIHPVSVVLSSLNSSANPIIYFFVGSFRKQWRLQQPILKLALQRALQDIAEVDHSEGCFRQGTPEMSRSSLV

348 GPCRs [5] = target: T5, 348 GPCRs (Homo sapiens, UniProt P18089)
T5 construct: expressed in transfected cells; host or cells: HEK293A
T5 sequence (P18089 1-450): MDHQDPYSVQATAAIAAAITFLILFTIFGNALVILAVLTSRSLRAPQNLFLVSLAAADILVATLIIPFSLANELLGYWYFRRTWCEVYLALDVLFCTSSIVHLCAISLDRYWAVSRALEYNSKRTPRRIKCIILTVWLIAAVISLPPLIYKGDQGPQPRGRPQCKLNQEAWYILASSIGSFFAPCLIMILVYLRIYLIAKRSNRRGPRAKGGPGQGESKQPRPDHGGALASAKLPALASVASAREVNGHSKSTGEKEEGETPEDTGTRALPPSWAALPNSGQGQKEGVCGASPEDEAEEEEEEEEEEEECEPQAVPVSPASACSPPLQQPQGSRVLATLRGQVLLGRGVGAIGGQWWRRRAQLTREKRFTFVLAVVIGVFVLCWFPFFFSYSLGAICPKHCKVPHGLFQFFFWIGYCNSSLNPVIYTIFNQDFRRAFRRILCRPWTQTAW

348 GPCRs [6] = target: T6, 348 GPCRs (Homo sapiens, UniProt Q99677); conditions: LPAR4 (lysophosphatidic acid receptor 4); 10µM, Favipiravir 100μM
T6 construct: expressed in transfected cells; host or cells: HEK293A

348 GPCRs [7] = target: T7, 348 GPCRs (Homo sapiens, UniProt P35410)
T7 construct: expressed in transfected cells; host or cells: HEK293A
T7 sequence (P35410 1-378): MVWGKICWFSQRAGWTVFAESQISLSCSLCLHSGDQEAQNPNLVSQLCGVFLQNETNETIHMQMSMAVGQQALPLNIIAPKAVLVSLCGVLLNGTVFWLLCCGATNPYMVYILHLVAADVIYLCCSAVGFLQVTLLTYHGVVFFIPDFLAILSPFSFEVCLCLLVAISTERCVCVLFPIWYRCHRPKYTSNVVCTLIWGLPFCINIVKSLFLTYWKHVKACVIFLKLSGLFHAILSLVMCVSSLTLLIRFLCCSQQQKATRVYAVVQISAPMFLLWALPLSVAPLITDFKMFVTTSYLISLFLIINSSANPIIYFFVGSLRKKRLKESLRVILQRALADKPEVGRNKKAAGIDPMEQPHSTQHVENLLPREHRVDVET

[8] = GPCR M4 (Muscarinic acetylcholine receptor M4), read-out: % GPCR activation compared to TPA
[9] = GPCR OXTR (oxytocin Receptor), read-out: % GPCR activation compared to TPA
[10] = SUCNR1 (succinate receptor 1), read-out: % GPCR activation compared to TPA
[11] = MRGPRX2 (MAS-related GPR, member X2), read-out: % GPCR activation compared to TPA
[12] = GPCR α2B (adrenoceptor alpha 2B), read-out: % GPCR activation compared to TPA
[13] = GPCR MAS1L (MAS1 oncogene-like), read-out: % GPCR activation compared to TPA
[14] = read-out: % GPCR activation compared to TPA, GPCR M4 (Muscarinic acetylcholine receptor M4)
[15] = read-out: % GPCR activation compared to TPA, GPCR OXTR (oxytocin Receptor)
[16] = read-out: % GPCR activation compared to TPA, SUCNR1 (succinate receptor 1)
[17] = read-out: % GPCR activation compared to TPA, MRGPRX2 (MAS-related GPR, member X2)
[18] = read-out: % GPCR activation compared to TPA, GPCR α2B (adrenoceptor alpha 2B)
[19] = read-out: % GPCR activation compared to TPA, GPCR MAS1L (MAS1 oncogene-like)

T6 sequence (Q99677 whole entry): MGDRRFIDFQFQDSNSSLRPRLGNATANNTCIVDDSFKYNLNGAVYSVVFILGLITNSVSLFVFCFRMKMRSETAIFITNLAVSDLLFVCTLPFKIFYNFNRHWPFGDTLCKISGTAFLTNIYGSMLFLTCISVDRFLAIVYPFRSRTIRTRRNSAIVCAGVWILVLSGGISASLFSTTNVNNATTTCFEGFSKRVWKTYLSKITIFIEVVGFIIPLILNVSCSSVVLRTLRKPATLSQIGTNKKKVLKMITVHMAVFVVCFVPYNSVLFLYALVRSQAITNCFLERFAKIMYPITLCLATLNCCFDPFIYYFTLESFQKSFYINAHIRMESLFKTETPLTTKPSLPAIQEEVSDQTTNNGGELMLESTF

SMILES | activation at 10 µM (348 GPCRs [1]; [8]) [%] | activation at 10 µM (348 GPCRs [2]; [9]) [%] | activation at 10 µM (348 GPCRs [3]; [10]) [%] | activation at 100 µM (348 GPCRs [4]; [11]) [%] | activation at 10 µM (348 GPCRs [5]; [12]) [%] | % GPCR activation compared to TPA (348 GPCRs [6]) [%] | activation at 10 µM (348 GPCRs [7]; [13]) [%] | activation at 10 µM (348 GPCRs [1]; [14]) [%] | activation at 10 µM (348 GPCRs [2]; [15]) [%] | activation at 10 µM (348 GPCRs [3]; [16]) [%] | activation at 100 µM (348 GPCRs [4]; [17]) [%] | activation at 10 µM (348 GPCRs [5]; [18]) [%] | activation at 10 µM (348 GPCRs [7]; [19]) [%] | activation at 100 µM (348 GPCRs [1]; GPCR M4 (Muscarinic acetylcholine receptor M4), 100μM, read-out: % GPCR activation compared to TPA) [%] | activation at 100 µM (348 GPCRs [2]; GPCR OXTR (oxytocin Receptor), 100μM, read-out: % GPCR activation compared to TPA) [%] | activation at 100 µM (348 GPCRs [5]; GPCR α2B (adrenoceptor alpha 2B), 100μM, read-out: % GPCR activation compared to TPA) [%] | activation at 100 µM (348 GPCRs [7]; GPCR MAS1L (MAS1 oncogene-like), 100μM, read-out: % GPCR activation compared to TPA) [%]
N#C[C@@]1(c2ccc3c(N)ncnn23)O[C@H](CO)[C@@H](O)[C@H]1O [GS441524] | -4.09 | -1.2 | -1.18 | -2.44 | -2.28 | 1.193 | 3.15 |  |  |  |  |  |  |  |  |  | 
CC(C)OC(=O)[C@H](C)N[P@](=O)(OC[C@H]1O[C@@H](n2ccc(=O)[nH]c2=O)[C@](C)(F)[C@@H]1O)Oc1ccccc1 [sofosbuvir] |  |  |  |  |  | 3.133 |  | -1.57 | -3.36 | -0.922 | 0.383 | 0.619 | 0.457 |  |  |  | 
CCC(CC)COC(=O)[C@H](C)N[P@](=O)(OC[C@H]1O[C@@](C#N)(c2ccc3c(N)ncnn23)[C@H](O)[C@@H]1O)Oc1ccccc1 [remdesivir] |  |  |  |  |  | -0.0834 |  | -2.98 | 0.33 | -2.26 | 0.19 | 5.93 | 0.269 |  |  |  | 
CC(C)C(=O)OC[C@H]1O[C@@H](n2ccc(NO)nc2=O)[C@H](O)[C@@H]1O [molnupiravir] | -1.11 | -2.8 | -1.93 | -3.06 | -2.53 | -0.2125 | 0.3 |  |  |  |  |  |  |  |  |  | 
NC(=O)c1nc(F)cnc1O [favipiravir, 6-fluoro-3-hydroxy-2-pyrazinecarboxamide] |  |  | -2.99 | -2.37 |  | -0.5456 |  |  |  |  |  |  |  | -6.29 | -0.726 | -4.03 | -0.101
